Assay results as given in patent publication US20210009542A1 (Calico Life Sciences LLC, priority 2018, published 2021).
Where a name gives a salt, the structure may show the parent alone.

Target: T1, His tagged PTPN2 (TC45) protein (Homo sapiens, UniProt P17706)
T1 construct: made in house
T1 sequence (P17706 with tags, fused parts or gaps isoform P17706-2): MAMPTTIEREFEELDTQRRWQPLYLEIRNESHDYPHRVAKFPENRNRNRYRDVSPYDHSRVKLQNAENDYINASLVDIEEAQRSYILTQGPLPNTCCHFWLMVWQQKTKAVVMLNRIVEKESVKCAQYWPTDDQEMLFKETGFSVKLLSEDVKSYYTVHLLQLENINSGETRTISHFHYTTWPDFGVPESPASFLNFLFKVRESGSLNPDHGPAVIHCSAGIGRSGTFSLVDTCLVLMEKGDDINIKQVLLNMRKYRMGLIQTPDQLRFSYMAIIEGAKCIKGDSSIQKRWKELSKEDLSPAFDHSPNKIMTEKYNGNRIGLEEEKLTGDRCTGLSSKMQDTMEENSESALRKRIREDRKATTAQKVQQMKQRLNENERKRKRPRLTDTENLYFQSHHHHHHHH
Experiment: Mobility shift assay (MSA) for potency of PTPN2 inhibitors
Assay type: biochemical
Settings: read-out: PTPN2 MSA IC50
Method: Compound activity was determined using in house His tagged PTPN2 (TC45) protein (SEQ ID NO: 1) in an in vitro enzymatic reaction. The enzymatic assay used to determine activity was a mobility shift assay using a LabChip EZ Reader by Caliper Life Sciences. The enzymatic reaction was carried out in assay buffer (50 mM HEPES pH 7.5, 1 mM EGTA, 10 mM EDTA, 0.01% Tween® 20, and 2 mM DTT). The compounds were dispensed on a white 384 well ProxiPlate™ (PerkinElmer Catalog #6008289) plate using the Labcyte Echo at varying concentrations (12 point, 1:3 dilution). The enzyme (at 0.5 nM) was incubated with compound for 10 minutes at room temperature. Then the substrate (phosphorylated insulin receptor probe sequence: ((OG488)-(NH—CH2—CH2—O—CH2—CH2—O—CH2—CO)-T-R-D-I-(PY)-E-T-D-Y-Y-R-K-K-NH2) (SEQ ID NO: 2) was added at […] to the plates and incubated for another 10 minutes at room temperature. Finally, a quench solution (water and 4-bromo-3-(2-oxo-2-propoxyethoxy)-5-(3-{[1-(phenylmethanesulfonyl)piperidin-4-yl]amino}phenyl)thiophene-2-carboxylic acid) was added to the plates, which were then run on the EZ Reader (excitation 488 nm, emission 530 nm) to measure % conversion (the amount of phosphorylated substrate which was de-phosphorylated by PTPN2). […] The % inhibition was then used to calculate the IC50 values.

O=C1CN(c2c(O)cc3ccc(OCCNC4CC4)cc3c2F)S(=O)(=O)N1 [Compound 142, 5-{7-[2-(cyclopropylamino)ethoxy]-1-fluoro-3-hydroxynaphthalen-2-yl}-1λ^6,2,5-thiadiazolidine-1,1,3-trione] was tested, and the IC50 was 1 to 10 nM.

With CC(C)CN(C)CCOc1ccc2cc(O)c(N3CC(=O)NS3(=O)=O)c(F)c2c1 [Compound 253, 5-(1-fluoro-3-hydroxy-7-{2-[methyl(2-methylpropyl)amino]ethoxy}naphthalen-2-yl)-1λ^6,2,5-thiadiazolidine-1,1,3-trione] the IC50 was 1 to 10 nM.

For O=C1CN(c2c(O)cc3ccc(NCC4CC4)cc3c2F)S(=O)(=O)N1 [Compound 202, 5-{7-[(cyclopropylmethyl)amino]-1-fluoro-3-hydroxynaphthalen-2-yl}-1λ^6,2,5-thiadiazolidine-1,1,3-trione], the IC50 was 1 to 10 nM.

O=C1CN(c2c(O)c(Br)c3ccc(-c4ccn(S(=O)(=O)C5CC5)c4)cc3c2F)S(=O)(=O)N1 [Compound 231B, 5-{4-bromo-7-[1-(cyclopropanesulfonyl)-1H-pyrrol-3-yl]-1-fluoro-3-hydroxynaphthalen-2-yl}-1λ^6,2,5-thiadiazolidine-1,1,3-trione] was tested, and the IC50 was 1 to 10 nM.

CNCCCc1ccc2cc(O)c(N3CC(=O)NS3(=O)=O)c(F)c2c1 [Compound 139, 5-{1-fluoro-3-hydroxy-7-[3-(methylamino)propyl]naphthalen-2-yl}-1λ^6,2,5-thiadiazolidine-1,1,3-trione] gave an IC50 of 1 to 10 nM.

In the case of COCCNCCOc1ccc2cc(O)c(N3CC(=O)NS3(=O)=O)c(F)c2c1 [Compound 138, 5-(1-fluoro-3-hydroxy-7-{2-[(2-methoxyethyl)amino]ethoxy}naphthalen-2-yl)-1λ^6,2,5-thiadiazolidine-1,1,3-trione], the IC50 is reported as 1 to 10 nM.

Nc1cccc(CS(=O)(=O)N2CC=C(c3ccc4cc(O)c(N5CC(=O)NS5(=O)=O)c(F)c4c3)C2)c1 [Compound 194, 5-(7-{1-[(3-aminophenyl)methanesulfonyl]-2,5-dihydro-1H-pyrrol-3-yl}-1-fluoro-3-hydroxynaphthalen-2-yl)-1λ^6,2,5-thiadiazolidine-1,1,3-trione] was tested, and the IC50 was less than 1 nM.

CCNCCCc1ccc2cc(O)c(N3CC(=O)NS3(=O)=O)c(F)c2c1 [Compound 140, 5-{7-[3-(ethylamino)propyl]-1-fluoro-3-hydroxynaphthalen-2-yl}-1λ^6,2,5-thiadiazolidine-1,1,3-trione] was tested, and the IC50 was 1 to 10 nM.

CNC(=O)CCCOc1ccc2cc(O)c(N3CC(=O)NS3(=O)=O)c(F)c2c1 [Compound 269, 4-{[8-fluoro-6-hydroxy-7-(1,1,4-trioxo-1λ^6,2,5-thiadiazolidin-2-yl)naphthalen-2-yl]oxy}-N-methylbutanamide] gave an IC50 of 1 to 10 nM.

O=C1CN(c2c(O)cc3ccc(C4CC4)cc3c2F)S(=O)(=O)N1 [Compound 236, 5-(7-cyclopropyl-1-fluoro-3-hydroxynaphthalen-2-yl)-1λ^6,2,5-thiadiazolidine-1,1,3-trione] was tested, and the IC50 was 1 to 10 nM.

For O=C1CN(c2c(O)cc3ccc(OCCCn4cccn4)cc3c2F)S(=O)(=O)N1 [Compound 183, 5-{1-fluoro-3-hydroxy-7-[3-(H-pyrazol-1-yl)propoxy]naphthalen-2-yl}-1λ^6,2,5-thiadiazolidine-1,1,3-trione], the IC50 was 1 to 10 nM.

O=C1CN(c2c(O)cc3ccc(C4=CCN(CC(F)(F)F)CC4)cc3c2F)S(=O)(=O)N1 [Compound 275, 5-{1-fluoro-3-hydroxy-7-[1-(2,2,2-trifluoroethyl)-1,2,3,6-tetrahydropyridin-4-yl]naphthalen-2-yl}-1λ^6,2,5-thiadiazolidine-1,1,3-trione] showed an IC50 of 1 to 10 nM.

Work on CC1(COc2ccc3cc(O)c(N4CC(=O)NS4(=O)=O)c(F)c3c2)COC1 [Compound 230, 5-{1-fluoro-3-hydroxy-7-[(3-methyloxetan-3-yl)methoxy]naphthalen-2-yl}-1λ^6,2,5-thiadiazolidine-1,1,3-trione] yielded an IC50 of 1 to 10 nM.

In the case of O=C1CN(c2c(O)cc3ccc(CO)cc3c2F)S(=O)(=O)N1 [Compound 185, 5-[1-fluoro-3-hydroxy-7-(hydroxymethyl)naphthalen-2-yl]-1λ^6,2,5-thiadiazolidine-1,1,3-trione], the IC50 is reported as 1 to 10 nM.

COc1ccc2cc(O)c(N3CC(=O)NS3(=O)=O)c(F)c2c1Cl [Compound 234, 5-(8-chloro-1-fluoro-3-hydroxy-7-methoxynaphthalen-2-yl)-1λ^6,2,5-thiadiazolidine-1,1,3-trione] showed an IC50 of 10 to 100 nM.

Work on CC(C)COc1ccc2cc(O)c(N3CC(=O)NS3(=O)=O)c(F)c2c1 [Compound 134, 5-[1-fluoro-3-hydroxy-7-(2-methylpropoxy)naphthalen-2-yl]-1λ^6,2,5-thiadiazolidine-1,1,3-trione] yielded an IC50 greater than 100 nM.

For O=C1CN(c2c(O)cc3ccc(OCc4cn[nH]c4)cc3c2F)S(=O)(=O)N1 [Compound 133, 5-{1-fluoro-3-hydroxy-7-[(1H-pyrazol-4-yl)methoxy]naphthalen-2-yl}-1λ6,2,5-thiadiazolidine-1,1,3-trione], the IC50 was 1 to 10 nM.

O=C1CN(c2c(O)cc3ccc(OCC(F)(F)F)cc3c2F)S(=O)(=O)N1 [Compound 197, 5-[1-fluoro-3-hydroxy-7-(2,2,2-trifluoroethoxy)naphthalen-2-yl]-1λ^6,2,5-thiadiazolidine-1,1,3-trione] gave an IC50 of 1 to 10 nM.

In the case of CC(C)OCCNc1ccc2cc(O)c(N3CC(=O)NS3(=O)=O)c(F)c2c1 [Compound 172, 5-[1-fluoro-3-hydroxy-7-({2-[(propan-2-yl)oxy]ethyl}amino)naphthalen-2-yl]-1λ^6,2,5-thiadiazolidine-1,1,3-trione], the IC50 is reported as 1 to 10 nM.

CNCCOc1ccc2cc(O)c(N3CC(=O)NS3(=O)=O)c(F)c2c1 [Compound 143, 5-{1-fluoro-3-hydroxy-7-[2-(methylamino)ethoxy]naphthalen-2-yl}-1λ^6,2,5-thiadiazolidine-1,1,3-trione] was tested, and the IC50 was 1 to 10 nM.

O=C1CN(c2c(O)cc3ccc(C4=CCN(S(=O)(=O)c5ccoc5)C4)cc3c2F)S(=O)(=O)N1 [Compound 312, 5-{1-fluoro-7-[1-(furan-3-sulfonyl)-2,5-dihydro-1H-pyrrol-3-yl]-3-hydroxynaphthalen-2-yl}-1λ^6,2,5-thiadiazolidine-1,1,3-trione] was tested, and the IC50 was less than 1 nM.

O=C1CN(c2c(O)cc3ccc(C4CCCNC4)cc3c2F)S(=O)(=O)N1 (stereo not drawn) [Compound 191, 5-[1-fluoro-3-hydroxy-7-(piperidin-3-yl)naphthalen-2-yl]-1λ^6,2,5-thiadiazolidine-1,1,3-trione] showed an IC50 of 1 to 10 nM.

Molecule O=C1CN(c2c(O)cc3ccc(C(=O)NCC4CC4)cc3c2F)S(=O)(=O)N1 [Compound 136, N-(cyclopropylmethyl)-8-fluoro-6-hydroxy-7-(1,1,4-trioxo-1λ^6,2,5-thiadiazolidin-2-yl)naphthalene-2-carboxamide] has an IC50 of 1 to 10 nM.

N#CCc1ccc2cc(O)c(N3CC(=O)NS3(=O)=O)c(F)c2c1 [Compound 228, [8-fluoro-6-hydroxy-7-(1,1,4-trioxo-1λ^6,2,5-thiadiazolidin-2-yl)naphthalen-2-yl]acetonitrile] showed an IC50 of 1 to 10 nM.

With Cc1c[nH]c(-c2ccc3cc(O)c(N4CC(=O)NS4(=O)=O)c(F)c3c2)n1 [Compound 225, 5-[1-fluoro-3-hydroxy-7-(4-methyl-1H-imidazol-2-yl)naphthalen-2-yl]-1λ^6,2,5-thiadiazolidine-1,1,3-trione] the IC50 was 10 to 100 nM.

In the case of COCc1ccc2cc(O)c(N3CC(=O)NS3(=O)=O)c(F)c2c1 [Compound 229, 5-[1-fluoro-3-hydroxy-7-(methoxymethyl)naphthalen-2-yl]-1λ^6,2,5-thiadiazolidine-1,1,3-trione], the IC50 is reported as 10 to 100 nM.

For C[C@@H](O)CCOc1ccc2cc(O)c(N3CC(=O)NS3(=O)=O)c(F)c2c1 [Compound 149, 5-{1-fluoro-3-hydroxy-7-[(3R)-3-hydroxybutoxy]naphthalen-2-yl}-1λ^6,2,5-thiadiazolidine-1,1,3-trione], the IC50 was 1 to 10 nM.

With CCP(=O)(CC)CCCOc1ccc2cc(O)c(N3CC(=O)NS3(=O)=O)c(F)c2c1 [Compound 146, 5-{7-[3-(diethylphosphoryl)propoxy]-1-fluoro-3-hydroxynaphthalen-2-yl}-1λ^6,2,5-thiadiazolidine-1,1,3-trione] the IC50 was 1 to 10 nM.

COCC1(CCOc2ccc3cc(O)c(N4CC(=O)NS4(=O)=O)c(F)c3c2)CC1 [Compound 160, 5-(1-fluoro-3-hydroxy-7-{2-[1-(methoxymethyl)cyclopropyl]ethoxy}naphthalen-2-yl)-1λ^6,2,5-thiadiazolidine-1,1,3-trione] gave an IC50 of 1 to 10 nM.

With O=C1CN(c2c(O)cc3ccc(CCO)cc3c2F)S(=O)(=O)N1 [Compound 175, 5-[1-fluoro-3-hydroxy-7-(2-hydroxyethyl)naphthalen-2-yl]-1λ^6,2,5-thiadiazolidine-1,1,3-trione, Ammonium Salt] the IC50 was 10 to 100 nM.
